The numbers were not newly measured in US20230040901A1, “PHARMACEUTICAL COMPOSITION FOR INHIBITING POSTOPERATIVE ADHESIONS” (PlantTec Medical GmbH, priority 2018, published 2023), which cites them from elsewhere.

Series [1] relates to postoperative adhesions. Particulars: 2% to 4% citrate in water or saline solution, 60 experiments on rabbits.
The test system of series [2] is postoperative adhesions. Particulars: clinical application in 400 abdominal surgeries.

With `O=C(O)CC(O)(CC(=O)O)C(=O)O` [citrate], in the series with postoperative adhesions [1], the Adhesions result is “fewer adhesions”. For the same compound, the Development of adhesions result in the series on postoperative adhesions [2] was “clear improvement”.
